No end group written: not given here.
Experiments:
Test in all cases: biochemical
Format in all cases: binding
HLA-DR DRB1*0101 (DR1) = HLA-DR DRB1*0101 (DR1) (Homo sapiens, UniProt P01903+P01911, A100R/D57E/F55L/F60I/F76Y/I96L/L162R/M171V/P40L/Q125E/R42F/V115G/Y59C); conditions: DRB1 *0101
HLA-DR DRB1*0301 (DR3) = HLA-DR DRB1*0301 (DR3) (Homo sapiens, UniProt P01903+P01911, A100K/A102G/A103R/A169T/F55Y/I96L/K41T/L162R/M171V/P40S/Q125H/Q178H/Q39Y/R42S/S66N/T106N/T262R/W38E/Y61H)
HLA-DR DRB1*0701 (DR7) = HLA-DR DRB1*0701 (DR7) (Homo sapiens, UniProt P01903+P01911, A100R/A102G/A103Q/D57E/D86V/E43K/F76Y/K127E/L162R/M171V/P40G/Q125H/Q99D/R33Q/R42Y/R54Q/S133A/S66F/T210M/V115G/Y107V/Y59L/Y89S); conditions: DRB1 *0701
HLA-DR DRB1*0802 (DR8) = HLA-DR DRB1*0802 (DR8) (Homo sapiens, UniProt P01903+P01911, A100R/A103L/A169T/F76Y/H45Y/I96F/K41T/L162R/M171V/P40S/Q125H/Q178H/Q39Y/Q99D/R218S/R42G/S66Y/V115G/W38E)
HLA-DR DRB1*0901 (DR9) = HLA-DR DRB1*0901 (DR9) (Homo sapiens, UniProt P01903+P01911, A100R/A103E/D57H/D86V/F55Y/F60I/F76Y/I96F/K127E/L162R/M171V/P40D/Q125H/Q99R/R33Q/R42F/S133A/S66N/T210M/V115G/W38K/Y107V/Y59G/Y89S); conditions: DRB1 *0901
HLA-DR DRB1*1101 (DR11) = HLA-DR DRB1*1101 (DR11) (Homo sapiens, UniProt P01903+P01911, A100R/A169T/A87E/I96F/K41T/L162R/M171V/P40S/Q125H/Q178H/Q39Y/Q99D/R42S/S66Y/T262R/V115G/W38E); conditions: DRB1 *1101
Sequence of HLA-DR DRB1*1101 (DR11) (P01903 26-254 limits assumed, other chains not shown): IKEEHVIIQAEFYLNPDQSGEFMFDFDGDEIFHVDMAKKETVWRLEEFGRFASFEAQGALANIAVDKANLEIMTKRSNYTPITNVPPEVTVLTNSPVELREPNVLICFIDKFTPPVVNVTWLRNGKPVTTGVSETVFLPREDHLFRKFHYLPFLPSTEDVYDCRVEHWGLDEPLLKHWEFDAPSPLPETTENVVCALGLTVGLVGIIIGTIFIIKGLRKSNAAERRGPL

HLA-DR DRB1*1302 (DR13) = HLA-DR DRB1*1302 (DR13) (Homo sapiens, UniProt P01903+P01911, A100E/A169T/K41T/L162R/M171V/P40S/Q125H/Q178H/Q39Y/Q99D/R42S/S66N/T262R/V115G/W38E/Y61H); conditions: DRBI *1302
Sequence of HLA-DR DRB1*1302 (DR13) (P01903 26-254 limits assumed, other chains not shown): as above

HLA-DR DRB1*1501 (DR15) = HLA-DR DRB1*1501 (DR15) (Homo sapiens, UniProt P01903+P01911); conditions: DRBI *1501
HLA-DR DRB3*0101 (DR52) = HLA-DR DRB3*0101 (DR52) (Homo sapiens, UniProt P01903+P79483)
HLA-DR DRB4*0101 (DR53) = HLA-DR DRB4*0101 (DR53) (Homo sapiens, UniProt P01903+P13762, G164S); conditions: DRB4 *0101
HLA-DR DRB5*0101 (DR51) = HLA-DR DRB5*0101 (DR51) (Homo sapiens, UniProt P01903+Q30154); conditions: DRB5 *0101
HLA-DR DRB1*0401 (DR4) = HLA-DR DRB1*0401 (DR4) (Homo sapiens, UniProt P01903+P01911, A100K/A169T/F76Y/I96L/K127E/L162R/M171V/N62H/P40V/Q125Y/R42H/S133A/S149N/S66Y/V115G/V209L/W38E); conditions: DRB1 *0401

Sequence of HLA-DR DRB1*0301 (DR3) (P01903 26-254 limits assumed, other chains not shown): as above

Compound	IC50 (HLA-DR DRB1*0101 (DR1)) [nM]	IC50 (HLA-DR DRB1*0301 (DR3)) [nM]	IC50 (HLA-DR DRB1*0701 (DR7)) [nM]	IC50 (HLA-DR DRB1*0802 (DR8)) [nM]	IC50 (HLA-DR DRB1*0901 (DR9)) [nM]	IC50 (HLA-DR DRB1*1101 (DR11)) [nM]	IC50 (HLA-DR DRB1*1302 (DR13)) [nM]	IC50 (HLA-DR DRB1*1501 (DR15)) [nM]	IC50 (HLA-DR DRB3*0101 (DR52)) [nM]	IC50 (HLA-DR DRB4*0101 (DR53)) [nM]	IC50 (HLA-DR DRB5*0101 (DR51)) [nM]	IC50 (HLA-DR DRB1*0401 (DR4)) [nM]
CSCC[C@H](NC(=O)[C@H](CC(C)C)NC(=O)[C@@H]1CCCN1C(=O)[C@@H](NC(=O)[C@@H](N)CS)[C@@H](C)O)C(=O)N[C@@H](Cc1ccc(O)cc1)C(=O)N[C@@H](CO)C(=O)N[C@@H](CC(C)C)C(=O)N[C@H](C(=O)N[C@@H](Cc1c[nH]cn1)C(=O)N[C@@H](CC(N)=O)C(=O)N[C@@H](CC(C)C)C(=O)N[C@H](C(=O)N[C@@H](CCCCN)C(=O)N[C@@H](CCC(=O)O)C(=O)O)[C@@H](C)O)C(C)C	93	19400	140	223	249	590	260	426	18300	58	36	
CSCC[C@H](NC(=O)[C@@H]1CCCN1C(=O)[C@@H](N)CC(=O)O)C(=O)N[C@@H](Cc1ccccc1)C(=O)N[C@@H](CCCCN)C(=O)N[C@@H](Cc1ccc(O)cc1)C(=O)N[C@@H](Cc1c[nH]cn1)C(=O)N[C@@H](CC(C)C)C(=O)N[C@H](C(=O)N[C@H](C(=O)N[C@@H](C)C(=O)N[C@@H](CCC(N)=O)C(=O)N[C@H](C(=O)N[C@@H](CCCNC(=N)N)C(=O)NCC(=O)O)C(C)C)C(C)C)[C@@H](C)O	5.7	> 75000	168	43	258	69	699	230	7300	467	11	9.1
CC(C)C[C@H](NC(=O)[C@H](CO)NC(=O)[C@H](CC(C)C)NC(=O)[C@H](CO)NC(=O)[C@H](C)NC(=O)[C@H](C)NC(=O)[C@H](CCCNC(=N)N)NC(=O)[C@H](C)NC(=O)[C@H](CC(C)C)NC(=O)[C@H](CC(C)C)NC(=O)[C@H](CC(C)C)NC(=O)[C@@H]1CCCN1C(=O)[C@H](C)NC(=O)[C@H](C)N)C(=O)NCC(=O)O	6.8	35400	160	30	64	100	3.2	35	10500	79	79	
CC[C@H](C)[C@H](NC(=O)[C@@H]1CCCN1C(=O)[C@@H](N)CC(N)=O)C(=O)N[C@@H](CC(C)C)C(=O)N[C@@H](CC(C)C)C(=O)N[C@@H](Cc1c[nH]c2ccccc12)C(=O)N[C@@H](CCC(N)=O)C(=O)N1CCC[C@H]1C(=O)N[C@H](C(=O)N1CCC[C@H]1C(=O)N[C@H](C(=O)N[C@@H](Cc1c[nH]cn1)C(=O)N[C@H](C(=O)N[C@H](C(=O)N1CCC[C@H]1C(=O)O)C(C)C)[C@@H](C)O)C(C)C)[C@@H](C)CC	31	> 81800	41	13000	575	599	250	4.6	> 8830	67	25000	206
NSRLLQERGVAYINA	614	318	8000	3220	2620	12800	327	1230	3370	699	3470	
EVFFQRLGIASGRAR	28	> 75000	5310	6.3	2980	31	17500	4560	> 15000	51	7.9	
CC[C@H](C)[C@H](NC(=O)[C@H](CO)NC(=O)[C@H](CC(N)=O)NC(=O)[C@H](C)NC(=O)[C@H](CC(C)C)NC(=O)[C@H](CCC(=O)O)NC(=O)[C@H](Cc1ccccc1)NC(=O)[C@@H](NC(=O)[C@H](CCSC)NC(=O)CN)C(C)C)C(=O)N[C@H](C(=O)N[C@@H](CC(C)C)C(=O)N1CCC[C@H]1C(=O)N[C@@H](Cc1ccccc1)C(=O)N[C@@H](CC(=O)O)C(=O)O)C(C)C	15	4600	30	5000	81	> 50000	12	83	234	4150	903	230
CC[C@H](C)[C@H](NC(=O)[C@H](CO)NC(=O)[C@H](CO)NC(=O)[C@H](CC(=O)O)NC(=O)[C@H](C)NC(=O)[C@H](CC(N)=O)NC(=O)[C@@H](NC(=O)[C@H](Cc1ccc(O)cc1)NC(=O)[C@H](C)NC(=O)[C@@H](N)C(C)C)[C@@H](C)CC)C(=O)N[C@@H](CCC(=O)O)C(=O)NCC(=O)N[C@@H](CC(N)=O)C(=O)N[C@@H](Cc1ccc(O)cc1)C(=O)N[C@H](C(=O)O)[C@@H](C)O	4720	531	9740	106000	5470	> 18900	2150	> 3490	471	841	> 37800	411
CC[C@H](C)[C@H](NC(=O)[C@H](Cc1c[nH]c2ccccc12)NC(=O)[C@H](CCCCN)NC(=O)[C@H](CCCNC(=N)N)NC(=O)[C@H](Cc1ccc(O)cc1)NC(=O)[C@H](Cc1c[nH]cn1)NC(=O)[C@@H](NC(=O)[C@@H](NC(=O)[C@H](CCCCN)NC(=O)[C@@H](NC(=O)[C@H](Cc1ccc(O)cc1)NC(=O)[C@H](CC(C)C)NC(=O)[C@H](CO)NC(=O)[C@@H]1CCCN1C(=O)[C@@H](N)CCCNC(=N)N)[C@@H](C)O)C(C)C)C(C)C)C(=O)O	6040	53800	652	39	5480	350	4180	717	2980	4900	13	339
YDPLYCESVHNFTLP	1600	16600	838	30900	643	30200	> 35000	2140	> 8830	6900	28800	
LHLLSNDMCARAYSE	2100	938	27700	50200	59900	26000	1880	> 2370	1310	324	28800	4280
YLVTGERGFFYTPKT	779	517	7740	29200	6300	7620	2100	> 25600	13700	20700	> 28400	> 20500
CSCC[C@H](NC(=O)[C@H](CC(C)C)NC(=O)[C@H](CC(=O)O)NC(=O)[C@@H](N)Cc1c[nH]cn1)C(=O)N[C@@H](CC(C)C)C(=O)N[C@@H](CC(C)C)C(=O)N[C@@H](CCCNC(=N)N)C(=O)N[C@@H](CC(C)C)C(=O)N[C@@H](CO)C(=O)N[C@@H](CCC(=O)O)C(=O)N1CCC[C@H]1C(=O)N[C@@H](C)C(=O)N[C@@H](CCC(=O)O)C(=O)N[C@@H](CC(C)C)C(=O)N[C@H](C(=O)O)[C@@H](C)O	62	2870	152	3910	22	2140	2.3	662	5310	45	10500	6190

— patent US20060079453A1, “Hla binding peptides and their uses” (priority 2002, published 2006)
